Source: US9497970B2, “Pesticide compounds” (priority 2013, dated 2016)

Legend:
Type in all cases: in vivo
[1] = tested on: Mediterranean Fruitfly (Ceratitis capitata); experiment: B.6 Mediterranean Fruitfly (Ceratitis capitata), microtiter plate insect diet; conditions: 120 h, 800 ppm, sprayed onto insect diet, 5 days, in comparison with untreated controls, read-out: mortality (egg and larval)
Procedure: B.6 Mediterranean Fruitfly (Ceratitis capitata)
For evaluating control of Mediterranean fruitfly (Ceratitis capitata) the test unit consisted of microtiter plates containing an insect diet and 50-80 C. capitata eggs.
(§1) The compounds were formulated using a solution containing 75% v/v water and 25% v/v DMSO. Different concentrations of formulated compounds were sprayed onto the insect diet at 5 μl, using a custom built micro atomizer, at two replications.
(§2) After application, microtiter plates were incubated at about 28±1° C. and about 80±5% relative humidity for 5 days. Egg and larval mortality was then visually assessed.

[2] = tested on: Orchid thrips (dichromothrips corbetti); experiment: B.12 Orchid thrips (dichromothrips corbetti), floral-immersion technique; conditions: adult thrips on dipped orchid petals, 72 hours after treatment, in comparison with untreated controls
Procedure: B.12 Orchid thrips (dichromothrips corbetti)
Dichromothrips corbetti adults used for bioassay were obtained from a colony maintained continuously under laboratory conditions. For testing purposes, the test compound is diluted in a 1:1 mixture of acetone:water (vol:vol), plus Kinetic HV at a rate of 0.01% v/v.
Thrips potency of each compound was evaluated by using a floral-immersion technique. All petals of individual, intact orchid flowers were dipped into treatment solution and allowed to dry in Petri dishes. Treated petals were placed into individual resealable plastic along with about 20 adult thrips. All test arenas were held under continuous light and a temperature of about 28° C. for duration of the assay. After 3 days, the numbers of live thrips were counted on each petal. The percent mortality was recorded 72 hours after treatment.

[3] = tested on: Tobacco Budworm (Heliothis virescens); experiment: B.7 Tobacco Budworm (Heliothis virescens) I, microtiter plate insect diet; conditions: 120 h, 800 ppm, sprayed onto insect diet, 5 days, in comparison with untreated controls, read-out: mortality (egg and larval)
Procedure: B.7 Tobacco Budworm (Heliothis virescens) I
For evaluating control of tobacco budworm (Heliothis virescens) the test unit consisted of 96-well-microtiter plates containing an insect diet and 15-25 H. virescens eggs. The compounds were formulated using a solution containing 75% v/v water and 25% v/v DMSO. Different concentrations of formulated compounds were sprayed onto the insect diet at 10 μl, using a custom built micro atomizer, at two replications.
as §2

[4] = tested on: Boll Weevil (Anthonomus grandis); experiment: B.3 Boll Weevil (Anthonomus grandis), microtiter plate insect diet; conditions: 120 h, 800 ppm, sprayed onto insect diet, 5 days, in comparison with untreated controls, read-out: mortality (egg and larval)
Procedure: B.3 Boll Weevil (Anthonomus grandis)
For evaluating control of boll weevil (Anthonomus grandis) the test unit consisted of 96-well-microtiter plates containing an insect diet and 5-10 A. grandis eggs.
as §1
After application, microtiter plates were incubated at about 25±1° C. and about 75±5% relative humidity for 5 days. Egg and larval mortality was then visually assessed.

[5] = tested on: Diamond Back Moth (Plutella xylostella); experiment: B.1 Diamond Back Moth (Plutella xylostella), cabbage leaf dip; conditions: foliar, 500 ppm, 3rd instar larvae on dipped cabbage leaves, 72 hours after treatment, in comparison with untreated controls, read-out: mortality
Procedure: B.1 Diamond Back Moth (Plutella xylostella)
The active compound was dissolved at the desired concentration in a mixture of 1:1 (vol:vol) distilled water:aceteone. Surfactant (Kinetic HV) was added at a rate of 0.01% (vol/vol). The test solution was prepared at the day of use.
Leaves of cabbage were dipped in test solution and air-dried. Treated leaves were placed in petri dishes lined with moist filter paper and inoculated with ten 3rd instar larvae. Mortality was recorded 72 hours after treatment. Feeding damages were also recorded using a scale of 0-100%.

FC(F)(F)Oc1ccc(-c2onc3c2CCc2cc(/C=N/NC(=S)Nc4c(Cl)cc(Cl)cc4Cl)ccc2-3)cc1 [C-9, 1-(2,4,6-trichlorophenyl)-3-[(E)-[3-[4-(trifluoromethoxy)phenyl]-4,5-dihydrobenzo[g][2,1]benzoxazol-7-yl]methyleneamino]thiourea]
≥ 75%: mortality at 800 ppm [1] | mortality at 500 ppm [2]

Cc1ccc(Cl)cc1NC(=S)N/N=C/c1ccc2c(ccc3c2ncn3-c2ccc(OC(F)(F)F)cc2)c1 [C-21, 1-(5-chloro-2-methyl-phenyl)-3-[(E)-[3-[4-(trifluoromethoxy)phenyl]benzo[e]benzimidazol-7-yl]methyleneamino] thiourea]
≥ 75%: mortality at 800 ppm [3] | mortality at 800 ppm [4] | mortality at 800 ppm [1] | mortality at 500 ppm [5] | mortality at 500 ppm [2]

FC(F)(F)Oc1ccc(-n2cnc3c4ccc(/C=N/NC(=S)Nc5cccc6ccccc56)cc4ccc32)cc1 [C-29, 1-(2H-naphthalen-1-ylidene)-3-[[3-[4-(trifluoromethoxy)phenyl]-9aH-benzo[e]benzimidazol-7-ylidene]methylimino] thiourea]
≥ 75%: mortality at 800 ppm [3] | mortality at 800 ppm [4] | mortality at 800 ppm [1] | mortality at 500 ppm [5]

FC(F)(F)Oc1ccc(-n2cnc3c4ccc(/C=N/NC(=S)Nc5ccccc5Cl)cc4ccc32)cc1 [C-30, 3-(2-chlorophenyl)-1-[[3-[4-(trifluoromethoxy)phenyl]-8H-benzo[e]benzimidazol-7-ylidene]methylimino] isothiourea]
≥ 75%: mortality at 500 ppm [5] | mortality at 500 ppm [2]

Cc1cc(Cl)ccc1NC(=S)N/N=C/c1ccc2c(ccc3c2ncn3-c2ccc(OC(F)(F)F)cc2)c1 [C-38, 1-(4-chloro-2-methyl-phenyl)-3-[(E)-[3-[4-(trifluoromethoxy)phenyl]benzo[e]benzimidazol-7-yl]methyleneamino] thiourea]
≥ 75%: mortality at 800 ppm [3] | mortality at 800 ppm [4] | mortality at 800 ppm [1] | mortality at 500 ppm [5] | mortality at 500 ppm [2]

CC(C)c1ccccc1NC(=S)N/N=C/c1ccc2c(ccc3c2ncn3-c2ccc(OC(F)(F)F)cc2)c1 [C-45, 1-(2-isopropylphenyl)-3-[[3-[4-(trifluoromethoxy)phenyl]-3aH-benzo[e]benzimidazol-7-ylidene]methylimino] thiourea]
≥ 75%: mortality at 800 ppm [3] | mortality at 800 ppm [4] | mortality at 800 ppm [1] | mortality at 500 ppm [5] | mortality at 500 ppm [2]

Cc1cccc(C)c1NC(=S)N/N=C/c1ccc2c(ccc3c2cnn3-c2ccc(OC(F)(F)F)cc2)c1 [C-46, (E)-N-(2,6-dimethylphenyl)-2-((3-(4-(trifluoromethoxy)phenyl)-3H-benzo[e]indazol-7-yl)methylene)hydrazinecarbothioamide]
≥ 75%: mortality at 800 ppm [3] | mortality at 800 ppm [4] | mortality at 800 ppm [1] | mortality at 500 ppm [5]

CCc1ccccc1NC(=S)N/N=C/c1ccc2c(ccc3c2cnn3-c2ccc(OC(F)(F)F)cc2)c1 [C-50, 1-(2-ethylphenyl)-3-[[3-[4-(trifluoromethoxy)phenyl]-5H-benzo[e]indazol-7-ylidene]methylimino]thiourea]
≥ 75%: mortality at 800 ppm [3] | mortality at 800 ppm [4] | mortality at 800 ppm [1] | mortality at 500 ppm [5]

FC(F)(F)Oc1ccc(-n2cnc3c4ccc(/C=N/NC(=S)Nc5c(Br)cccc5Br)cc4ccc32)cc1 [C-66, 1-(2,6-dibromophenyl)-3-[(E)-[3-[4-(trifluoromethoxy)phenyl]benzo[e]benzimidazol-7-yl]methyleneamino] thiourea]
≥ 75%: mortality at 800 ppm [3] | mortality at 800 ppm [4] | mortality at 800 ppm [1] | mortality at 500 ppm [5] | mortality at 500 ppm [2]

FC(F)(F)Oc1ccc(-n2cnc3c4ccc(/C=N/NC(=S)Nc5ccccc5Br)cc4ccc32)cc1 [C-67, 1-(2-bromophenyl)-3-[[3-[4-(trifluoromethoxy)phenyl]-5H-benzo[e]benzimidazol-7-ylidene]methylimino] thiourea]
≥ 75%: mortality at 800 ppm [3] | mortality at 800 ppm [4] | mortality at 800 ppm [1] | mortality at 500 ppm [5]

CCc1cccc(C)c1NC(=S)N/N=C(\C)c1ccc2c(ccc3c2ncn3-c2ccc(OC(F)(F)F)cc2)c1 [C-82, 1-(2-ethyl-6-methyl-phenyl)-3-[(E)-1-[3-[4-(trifluoromethoxy)phenyl]benzo[e]benzimidazol-7-yl]ethylideneamino]thiourea]
≥ 75%: mortality at 500 ppm [5] | mortality at 500 ppm [2]

Cc1cccc(Cl)c1NC(=S)N/N=C/c1ccc2c(ccc3c(-c4ccc(OC(F)(F)F)cc4)n(C)nc32)c1 [C-91, 1-(2-chloro-6-methyl-phenyl)-3-[(E)-[2-methyl-3-[4-(trifluoromethoxy)phenyl]benzo[g]indazol-7-yl]methyleneamino] thiourea]
≥ 75%: mortality at 800 ppm [3] | mortality at 800 ppm [4] | mortality at 800 ppm [1] | mortality at 500 ppm [5]

Cn1nc2c(ccc3cc(/C=N/NC(=S)Nc4c(Br)cccc4Br)ccc32)c1-c1ccc(OC(F)(F)F)cc1 [C-98, 1-(2,6-dibromophenyl)-3-[(E)-[2-methyl-3-[4-(trifluoromethoxy)phenyl]benzo[g]indazol-7-yl]methyleneamino] thiourea]
≥ 75%: mortality at 800 ppm [3] | mortality at 800 ppm [4] | mortality at 800 ppm [1] | mortality at 500 ppm [5]

Cn1nc2c(ccc3cc(/C=N/NC(=S)Nc4c(Cl)cccc4Cl)ccc32)c1-c1ccc(OC(F)(F)F)cc1 [C-99, 1-(2,6-dichlorophenyl)-3-[(E)-[2-methyl-3-[4-(trifluoromethoxy)phenyl]benzo[g]indazol-7-yl]methyleneamino]thiourea]
≥ 75%: mortality at 800 ppm [3] | mortality at 800 ppm [4] | mortality at 800 ppm [1] | mortality at 500 ppm [2]

Cc1cccnc1NC(=S)N/N=C/c1ccc2c(ccc3c(-c4ccc(OC(F)(F)F)cc4)n(C)nc32)c1 [C-101, 1-(3-methyl-2-pyridyl)-3-[(E)-[2-methyl-3-[4-(trifluoromethoxy)phenyl]benzo[g]indazol-7-yl]methyleneamino]thiourea]
≥ 75%: mortality at 800 ppm [3] | mortality at 800 ppm [4] | mortality at 800 ppm [1] | mortality at 500 ppm [5] | mortality at 500 ppm [2]
